The nature of data set [1]: Stability tests in aqueous solution, 0.9% NaCl at 37° C. (Example 5). Type of data set: physicochemical. Particulars: 0.9% NaCl solution, dark, start 1.584 mg/ml (complex), 0.0216 mg/ml (uncomplexed). The method, then: In order to determine the content of delphinidin chloride in the delphinidin-containing solutions, a reverse phase HPLC process similar to that already described above was used. The following reagents were used thereby:
The delphinidin content was determined after 1, 2, 3 and 4 hours.
The determination of the delphinidin content in the samples was calculated with the aid of Agilent ChemStation software using calibration with the described external standard.

The nature of data set [2]: Solubility of delphinidin chloride in aqueous cyclodextrin solutions (Example 1). The data set is classed as physicochemical. Particulars: pure water, cyclodextrin concentration 0; stirred 20 hours at 30° C. in the dark, filtered 0.22 μm.
Protocol: In this example, the complexing of delphinidin by various cyclodextrins and the solubility of the complex in aqueous solution are studied.
Neutral aqueous solutions comprising 10% by weight of the respective cyclodextrin were prepared.
In each case 5 ml of the aqueous cyclodextrin solutions and of pure water were introduced into glass flasks. An excess of delphinidin chloride was then added.
The suspensions were stirred for 20 hours at 30° C. in the dark. They were then filtered through a membrane filter of 0.22 μm pore size.

Structures are written as SMILES.

As to `Oc1cc(O)c2cc(O)c(-c3cc(O)c(O)c(O)c3)[o+]c2c1.[Cl-]` [Delphinidin chloride], the “Delphinidin content as percentage of the starting concentration” value in data set [1] (0 h) was 100%; in data set [1] (1 h), 8.3%; in data set [1] (2 h), 6.5%; in data set [1] (3 h), 5.6%; in data set [1] (4 h), 5.1%. Moreover, the “Achievable solubility, Delphinidin chloride” value in data set [2] stood at 70 µg/mL.

For the origin of these results see patent US20210047441A1, “ANTHOCYANIDIN COMPLEX” (priority 2012, published 2021).
